Columns and labels:
[1] = HICS-FTMS of plasma from rats treated by oral gavage; assay type: in vivo; conditions: rat plasma, 100 mg/kg daily by oral gavage for one week, versus untreated rats
Method: Three rats were treated daily with 100 mg/kg of 6-(6-hydroxy-5,5-dimethylhexyloxy)-2,2-dimethyl-hexan-1-ol by oral gavage, over the course of one week. 6-(6-hydroxy-5,5-dimethylhexyloxy)-2,2-dimethyl-hexon-1-ol increases HDL-cholesterol and improves glucose utilization in experimental rats (see U.S. application Ser. No. 09/540,738 , filed Mar. 31, 2000). At the end of the week, blood was drawn from each of the three rats, as well as from three control (untreated) rats. The blood was allowed to coagulate, and the plasma was prepared for FTMS by adding a water and methanol solution (49:49:2, water:methanol:acetic acid v:v:v) each of the plasma preparations. The mixture was chilled to precipitate the proteins to the bottom of the tube. Each tube was centrifuged, the supernatant decanted and the sample desalted by adding approximately 100 mg of DOWEX ion exchange resin to each vial and incubating the sample with the resin for approximately 10 minutes. The sample was then centrifuged and the supernatant removed. This solution was then introduced to the FT mass spectrometer.

[2] = experimental rats; see U.S. application Ser. No. 09/540,738; cited from earlier work
[3] = tested on: primary rat hepatocyte cells; experiment: FTMS of extracts of primary rat hepatocytes treated with lovastatin; assay type: cell-based; conditions: lovastatin 0.03 to 30 μM for 4 hours, normalized against untreated
Method: A male Sprague-Dawley rat was anesthetized by administration of sodium pentobarbitol by at 50 mg/kg body mass be intraperitoneal injection. In situ perfusion of the liver was performed as follows. The abdomen of the animal was opened, the portal vein was cannulated, and the liver perfused with WOSH solution (149 mM NaCl, 9.2 mM Na HEPES, 1.7 mM fructose, 0.5 mM EGTA, 10 U/ml heparin, pH 7.5) at a flow rate of 30 ml/min for 6 minutes. To digest the liver, DSC solution (6.7 mM KCl, 143 mM NaCl, 9.2 mM Na HEPES, 5 mM CaCl2-2H2O, 1.7 mM fructose, 0.2% BSA, 100 U/ml collagenase Type I, 80 U/ml, 160 BAEE/ml trypsin inhibitor, pH 7.5) was perfused through the liver at a flow rate of 30 ml/min for 6 minutes at a temperature of 37° C. After digestion, cells were dispersed in a solution of DMEM- (DMEM containing 2mM GlutMax-1, 0.2% BSA, 5% FBS, 12 nM insulin, 1.2 μM hydrocortisone) to stop the digestion process. The crude cell suspension was filtered through three layers of stainless steel mesh with pore sizes of 250, 106, and 75 um respectively. Filtered cells were centrifuged at 50×g for two minutes and the supernatant discarded. […]
All measurements were carried out on a Bruker APEX II FTMS equipped with a 7.0 Tesla magnet. […] The accurate mass data was then analyzed using Tcl/Tk routines, which serially search the mass spectra from each well for chemical composition of metabolic products. […]

SMILES	intensity of FTMS peak of molecular mass approximately 766.4 Daltons [1]	intensity of FTMS peak of molecular mass approximately 766.8 Daltons [1]	HDL-cholesterol [2]	glucose utilization [2]	relative intensity of FTMS peak at molecular mass 85.02815 [3]	relative intensity of FTMS peak at molecular mass 85.64405 [3]
CC(C)(CO)CCCCOCCCCC(C)(C)CO [6-(6-hydroxy-5,5-dimethylhexyloxy)-2,2-dimethyl-hexan-1-ol]	reproducibly higher intensities	reproducibly higher intensities	increases	improves	–	–
CC[C@H](C)C(=O)O[C@H]1C[C@@H](C)C=C2C=C[C@H](C)[C@H](CC[C@@H]3C[C@@H](O)CC(=O)O3)[C@H]21 [lovastatin]	–	–	–	–	decreasing trend	increasing trend

From patent US6974702B2, “Fourier transform mass spectrometry of complex biological samples” (Esperion Therapeutics, Inc., priority 2000, dated 2005)
